Reference: paper PMC4377892, “Gastroprotective Efficacy and Safety Evaluation of Scoparone Derivatives on Experimentally Induced Gastric Lesions in Rodents” (Nutrients, 2015)

Columns and labels:
[1] = molecular target: CYP2C9 (Homo sapiens, UniProt P11712); assay: Cytochrome P450 enzyme activity assay in vitro (CYP2C9 screening kit)
Description: (§1) The inhibition assays for human cytochrome P450 (CYP) enzyme activities were performed in multiwall plates using CYP2C9 and CYP3A4 screening kits (Invitrogen Co., Carlsbad, CA, USA) according to the manufacturer’s instruction. The test compounds Ketoconazole (a positive inhibition control for CYP3A4) or Sulfaphenazole (a positive inhibition control for CYP2C9) were mixed with each master pre-mix comprising CYP2C9 or CYP3A4 BACULOSOMES® reagent and the regeneration system, which contained glucose-6-phosphate and glucose-6-phosphate dehydrogenase. The mixture was incubated at room temperature for 20 min. Following incubation, a CYP enzyme-specific substrate (Vivid BOMCC) and NADP^+ were added and the mixture was incubated at room temperature for 30 min. The reaction was stopped by the addition of a Stop Reagent (CYP450 isozyme specific inhibitors). CYP activity was evaluated by measuring the fluorescence of the fluorescent metabolite generated from each CYP enzyme-specific substrate. The fluorescence was measured using a fluorescent plate reader at 409 nm (excitation) and 460 nm (emission). All experiments were performed in duplicate, and the results are expressed as percent inhibition.

[2] = molecular target: CYP3A4 (Homo sapiens, UniProt P08684); assay: in vitro; settings: recombinant enzyme
Description: as §1

[3] = tested on: HCl/ethanol-induced gastric ulcers; assay: HCl/ethanol-induced gastritis in rats; format: in vivo, Sprague-Dawley (S.D.) rats; settings: HCl/ethanol-induced GU; for ED50: Rattus norvegicus, oral, dose-response, rats, read-out: ED50 (50% protection against GU)
Description: The male S.D. rats were fasted for 24 h prior to oral dosing with the normal saline (vehicle), rebamipide (a positive control), or test compounds (Figure 1) at a range of doses, which are described in the results. One hour after the treatments, all animals orally received 0.5 mL of a mixture of 0.15 M HCl and 60% ethanol solution. Animals were sacrificed by cervical dislocation 3 h after the administration of HCl/ethanol solution, the stomach was removed and fixed in 4% formalin solution for 1 h, opened along the greater curvature, and photographed using a camera attached to a dissection microscope. Total area (mm^2) of mucosal erosive lesion was measured using Photoshop CS4 Extended (Adobe, San Jose, CA, USA) software. The percentage of ulcer inhibition by test compounds was calculated by the following formula: % protection of ulceration = ((%Uarea vehicle treated ulcer control–%Uarea compound treated)/%Uarea vehicle treated ulcer control) × 100(1) where %Uarea is the percent ulcer area of the total gastric mucosa area. ED50 values (50% protection against GU) were calculated from the dose-response curves of logarithmic plots of each test compound.

[4] = tested on: adherent gastric mucus; assay: Measurement of adherent gastric mucus (alcian blue) in HCl/ethanol-treated rats; format: in vivo, Sprague-Dawley (S.D.) rats; settings: 20 mg/kg body weight oral, 1 h before HCl/ethanol, mean ± SEM n = 6
Description: The male S.D. rats were fasted for 24 h prior to oral dosing with normal saline, rebamipide, or test compounds at a dose of 20 mg/kg body weight. One hour after the treatments, all animals orally received 0.5 mL of a mixture of 0.15 M HCl and 60% ethanol solution. Animals were sacrificed by cervical dislocation 3 h after the administration of HCl/ethanol solution, the stomach was removed, and parts of the stomach mucosa were rinsed with ice-cold 0.25 M sucrose. Measurement of adherent gastric mucosal mucus was assayed using alcian blue, a dye which stains acid mucosubstances, as previously described. In brief, a 100 mm^2 portion of the glandular region of the stomach was excised with a scalpel, and soaked in 0.1% alcian blue dissolved in 0.16 M of sucrose buffered with 0.05 M sodium acetate (pH 5.8) for 2 h. The unbound dye was removed using two successive washes with 0.25 M sucrose. The dye complex with mucus was extracted using 30% docusate sodium salt for 2 h. After centrifugation at 2600× g for 10 min, the optical density of the alcian blue solution was measured at 620 nm and calculated using the calibration curve. The adherent gastric mucosal mucus was expressed as the amount of the alcian blue (μg/g tissue).

[5] = tested on: ICR mice; assay: Acute oral toxicity in mice; format: in vivo; settings: for Mortality / Relative Organ Weight, Heart / Relative Organ Weight, Kidney / Relative Organ Weight, Liver / Relative Organ Weight, Lung / Relative Organ Weight, Spleen / alteration in body weight vs vehicle control (in words): single oral 1000 mg/kg, 14 days; for Mortality: deaths/animals; for Relative Organ Weight, Heart / Relative Organ Weight, Kidney / Relative Organ Weight, Liver / Relative Organ Weight, Lung / Relative Organ Weight, Spleen: mean ± SEM n = 10; for LD50: oral, Probit method; for alteration in body weight vs vehicle control (in words): male and female ICR mice; for acute toxicity (in words): single oral administration 1000 mg/kg body weight, ICR mice
Description: Acute toxicity studies were performed both in male and female ICR mice as described previously. Vehicle control and test compound treated groups consisted of 10 animals each. Mice were acclimatized for 7 days before experimentation. Before dosing with test compounds, animals were fasted for 24 h with access to adequate drinking water in cases with wire mesh bottoms, to prevent coprophagy. The treated group received test compounds, and the control group received saline by gavage at a dose of 1000 mg/kg body weight. […] The mortality, body measurements, and behavior were assessed and recorded daily for 14 days after treatment. The macroscopic analyses and weight of vital organs, such as the liver, kidney, spleen, lung, and heart were compared between the animals treated with test compounds and vehicle.

[6] = tested on: indomethacin-induced gastric ulcers; assay: Indomethacin-induced gastritis in rats; format: in vivo, Sprague-Dawley (S.D.) rats; settings: for gastroprotective activity (in words): oral 40 mg/kg, indomethacin-induced GU, rats; for GU reversal: stated for both HCl/ethanol- and indomethacin-induced GU
Description: The male S.D. rats were fasted for 24 h prior to oral dosing with normal saline, rebamipide, or test compounds at a dose of 40 mg/kg body weight. One hour after treatment, all animals orally received 0.5 mL indomethacin solution (80 mg/kg body weight, suspended in 5% sodium bicarbonate). Animals were sacrificed by cervical dislocation 6 h after the administration of indomethacin solution, the stomach was removed and fixed in 2% formalin solution for 30 min, opened along the greater curvature, and photographed using a camera attached to a dissection microscope. Total area (mm^2) of mucosal erosive lesion was measured and the % protection was calculated as described above.

[7] = single oral dose 40 mg/kg body weight, S.D. rats

CYP3A4, sequence (P08684 whole entry): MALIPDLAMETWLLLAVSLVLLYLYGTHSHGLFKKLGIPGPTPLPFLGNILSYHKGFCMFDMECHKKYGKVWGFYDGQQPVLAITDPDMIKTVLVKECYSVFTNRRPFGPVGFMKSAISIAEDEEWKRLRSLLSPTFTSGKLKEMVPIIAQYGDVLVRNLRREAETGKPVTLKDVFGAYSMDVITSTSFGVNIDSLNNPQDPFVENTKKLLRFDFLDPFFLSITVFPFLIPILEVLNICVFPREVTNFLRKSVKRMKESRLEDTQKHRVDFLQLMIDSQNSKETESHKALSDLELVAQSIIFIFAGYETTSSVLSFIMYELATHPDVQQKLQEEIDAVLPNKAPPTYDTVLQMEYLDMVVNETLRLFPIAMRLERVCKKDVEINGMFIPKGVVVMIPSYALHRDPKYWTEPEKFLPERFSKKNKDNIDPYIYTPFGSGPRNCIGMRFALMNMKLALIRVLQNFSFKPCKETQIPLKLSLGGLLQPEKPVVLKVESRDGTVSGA
CYP2C9, sequence (P11712 whole entry): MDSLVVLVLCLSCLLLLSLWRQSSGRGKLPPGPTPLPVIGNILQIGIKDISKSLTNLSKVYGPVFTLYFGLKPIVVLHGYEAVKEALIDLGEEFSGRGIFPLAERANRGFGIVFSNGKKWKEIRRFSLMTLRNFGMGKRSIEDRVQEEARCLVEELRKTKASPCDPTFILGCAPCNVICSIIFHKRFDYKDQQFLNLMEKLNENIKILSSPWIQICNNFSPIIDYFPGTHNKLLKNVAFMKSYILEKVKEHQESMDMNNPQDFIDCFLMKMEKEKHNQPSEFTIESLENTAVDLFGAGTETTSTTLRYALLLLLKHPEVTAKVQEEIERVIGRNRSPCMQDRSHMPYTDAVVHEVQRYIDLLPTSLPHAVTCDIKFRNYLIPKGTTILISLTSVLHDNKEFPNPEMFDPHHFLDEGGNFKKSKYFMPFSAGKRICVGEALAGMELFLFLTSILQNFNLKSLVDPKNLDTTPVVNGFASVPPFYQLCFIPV

O=c1ccc2cc3c(cc2o1)OCO3 [Compound 6, 6,7-Methylenedioxycomarin]
melting point: 230 to 231 °C

Nc1ccc(S(=O)(=O)Nc2ccnn2-c2ccccc2)cc1 [Sulfaphenazole, reference compound]
inhibition at 30 min, 20 µM ([1]; recombinant enzyme): 93.4%
inhibition at 30 min, 20 µM [2]: 0%

COc1cc2ccc(=O)oc2c(OC)c1OC [Compound 3, 6,7,8-trimethoxycoumarin]
ED50 [3]: 2.93 mg/kg
protection rate (gastric lesion) [3, 7]: 95.8%
Adherent Mucus [4]: 1876 ± 51 μg alcian blue/g tissue
inhibition at 30 min, 10 µM ([1]; recombinant enzyme): 0%
Mortality ([5]; female mice): 0/10
Relative Organ Weight, Heart ([5]; female mice): 0.54 ± 0.05 % body weight
Relative Organ Weight, Kidney ([5]; female mice): 1.34 ± 0.05 % body weight
Relative Organ Weight, Liver ([5]; female mice): 6.86 ± 0.78 % body weight
Relative Organ Weight, Lung ([5]; female mice): 0.79 ± 0.06 % body weight
Relative Organ Weight, Spleen ([5]; female mice): 0.48 ± 0.10 % body weight
Mortality ([5]; male mice): 0/10
Relative Organ Weight, Heart ([5]; male mice): 0.50 ± 0.02 % body weight
Relative Organ Weight, Kidney ([5]; male mice): 1.58 ± 0.06 % body weight
Relative Organ Weight, Liver ([5]; male mice): 4.92 ± 0.24 % body weight
Relative Organ Weight, Lung ([5]; male mice): 0.69 ± 0.06 % body weight
Relative Organ Weight, Spleen ([5]; male mice): 0.40 ± 0.07 % body weight
LD50 ([5]; female ICR mice): 3500 mg/kg body weight
LD50 ([5]; male ICR mice): 2111 mg/kg body weight
alteration in body weight vs vehicle control (in words) [5]: no significant alteration
acute toxicity (in words) [5]: no toxicity
gastroprotective activity (in words) [6]: effectively inhibited
GU reversal [6]: over 90%
inhibition at 30 min, 10 µM [2]: 15.8%

COc1cc2ccc(=O)oc2c2c1OCO2 [Compound 4, 6-methoxy-7,8-methylenedioxycoumarin]
protection rate (gastric lesion) [3, 7]: 93.1%
melting point: 220 to 221 °C
gastroprotective activity (in words) [6]: equipotent gastroprotective activity that of rebamipide

COc1cc2ccc(=O)oc2c2c1OC(OC)O2 (stereo not shown) [Compound 5, 6-Methoxy-7,8-(1-methoxy)methylenedioxycoumarin]
melting point: 202 to 203 °C

COc1cc2ccc(=O)oc2cc1OC [Compound 1, 6,7-dimethoxycoumarin]
ED50 [3]: 4.21 mg/kg
gastroprotective activity (in words) [3, 7]: significantly protected
inhibition at 30 min, 10 µM ([1]; recombinant enzyme): 0%
gastroprotective activity (in words) [6]: effectively inhibited
inhibition at 30 min, 10 µM [2]: 32.7%

COC1Oc2cc3ccc(=O)oc3cc2O1 (stereo not shown) [Compound 7, 6,7-(1-Methoxy)methylenedioxycoumarin]
melting point: 205 to 206 °C

CC(=O)N1CCN(c2ccc(OCC3COC(Cn4ccnc4)(c4ccc(Cl)cc4Cl)O3)cc2)CC1 (stereo not shown) [Ketoconazole, reference compound]
inhibition at 30 min, 20 µM ([1]; recombinant enzyme): 0%
inhibition at 30 min, 20 µM [2]: 97.5%

O=C(NC(Cc1cc(=O)[nH]c2ccccc12)C(=O)O)c1ccc(Cl)cc1 (stereo not shown) [Rebamipide, reference compound]
ED50 [3]: 9.53 mg/kg
protection rate (gastric lesion) [3, 7]: 57.8%
Adherent Mucus [4]: 1584 ± 80 μg alcian blue/g tissue

COc1cc2oc(=O)ccc2c(OC)c1OC [Compound 2, 5,6,7-Trimethoxycoumarin]
ED50 [3]: 3.94 mg/kg
protection rate (gastric lesion) [3, 7]: 90.0%
Adherent Mucus [4]: 1424 ± 83 μg alcian blue/g tissue
inhibition at 30 min, 10 µM ([1]; recombinant CYP2C9 BACULOSOMES, probe Vivid BOMCC): 0%
Mortality ([5]; female mice): 0/10
Relative Organ Weight, Heart ([5]; female mice): 0.47 ± 0.05 % body weight
Relative Organ Weight, Kidney ([5]; female mice): 1.22 ± 0.09 % body weight
Relative Organ Weight, Liver ([5]; female mice): 4.21 ± 0.64 % body weight
Relative Organ Weight, Lung ([5]; female mice): 0.69 ± 0.07 % body weight
Relative Organ Weight, Spleen ([5]; female mice): 0.45 ± 0.09 % body weight
Mortality ([5]; male mice): 0/10
Relative Organ Weight, Heart ([5]; male mice): 0.46 ± 0.07 % body weight
Relative Organ Weight, Kidney ([5]; male mice): 1.56 ± 0.05 % body weight
Relative Organ Weight, Liver ([5]; male mice): 5.84 ± 0.23 % body weight
Relative Organ Weight, Lung ([5]; male mice): 0.68 ± 0.05 % body weight
Relative Organ Weight, Spleen ([5]; male mice): 0.36 ± 0.08 % body weight
LD50 ([5]; female ICR mice): 3857 mg/kg body weight
LD50 ([5]; male ICR mice): 3812 mg/kg body weight
alteration in body weight vs vehicle control (in words) [5]: no significant alteration
acute toxicity (in words) [5]: no toxicity
gastroprotective activity (in words) [6]: effectively inhibited
GU reversal [6]: over 90%
inhibition at 30 min, 10 µM [2]: 19.1%
